Where two headings read alike, the source gives them in different places.
Columns and labels:
[1] = target: Acetylcholine Binding Protein (Lymnaea stagnalis (Great pond snail) (Helix stagnalis), UniProt P58154); parameters: species or system Lymnaca stagnalis
[2] = target: T1, CYP2A13 (Homo sapiens (Human), UniProt Q16696); assay: in vitro
[3] = target: T2, human CYP2A6 (Homo sapiens (Human), UniProt P11509); settings: human, pH 7.5
[4] = target: mouse CYP2A5 (Mus musculus (Mouse), UniProt P20852); assay: Inhibition of mouse CYP2A5; type: biochemical; settings: read-out: IC50 mCYP2A5
[5] = target: T2, human CYP2A6; assay: CYP2A6 mediated coumarin 7-hydroxylation inhibition; settings: read-out: CYP2A6 IC50; coumarin 7-hydroxylation
[6] = target: Ach binding protein (AchBP) (Lymnaea stagnalis (Great pond snail) (Helix stagnalis), UniProt P58154)
Source text: To examine the degree of interaction with the nicotinic acetylcholine receptor, we examined the binding interaction of the synthetic inhibitors with the Ach binding protein (AchBP) from the fresh water snail (Table 3).

[7] = target: CYP3A4 (Homo sapiens (Human), UniProt P08684); assay: CYP3A4 inhibition assay (testosterone 6-hydroxylation)
[8] = target: CYP3A4 relative to CYP2A6 (Homo sapiens (Human), UniProt P08684); assay: in vitro; settings: human, pH 7.5, Selectivity Ratio: IC50 (Inhibition of CYP3A4)/IC50 (Inhibition of CYP2A6)
[9] = target: T2, human CYP2A6; assay: biochemical
[10] = test system: NNK-dependent tumorigenesis in mice; settings: mouse, in vivo; cited from earlier work
[11] = target: T1, CYP2A13; assay: Inhibition of human CYP2A13; settings: human

T2 sequence (P11509 whole entry): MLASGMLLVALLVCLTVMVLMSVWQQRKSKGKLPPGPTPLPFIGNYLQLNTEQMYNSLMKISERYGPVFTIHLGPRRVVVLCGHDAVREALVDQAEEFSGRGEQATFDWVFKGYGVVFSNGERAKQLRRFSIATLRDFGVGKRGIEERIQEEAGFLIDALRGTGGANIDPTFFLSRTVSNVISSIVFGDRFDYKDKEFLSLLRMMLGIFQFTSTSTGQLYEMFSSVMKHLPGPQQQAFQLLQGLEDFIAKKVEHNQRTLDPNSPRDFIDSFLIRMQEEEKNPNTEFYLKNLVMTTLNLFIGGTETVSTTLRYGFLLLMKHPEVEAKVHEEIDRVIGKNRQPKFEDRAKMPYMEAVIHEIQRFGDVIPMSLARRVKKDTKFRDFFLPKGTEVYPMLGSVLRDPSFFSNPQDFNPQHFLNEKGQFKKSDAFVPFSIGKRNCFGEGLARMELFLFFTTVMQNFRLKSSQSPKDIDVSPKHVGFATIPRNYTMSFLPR
T1 sequence (Q16696 whole entry): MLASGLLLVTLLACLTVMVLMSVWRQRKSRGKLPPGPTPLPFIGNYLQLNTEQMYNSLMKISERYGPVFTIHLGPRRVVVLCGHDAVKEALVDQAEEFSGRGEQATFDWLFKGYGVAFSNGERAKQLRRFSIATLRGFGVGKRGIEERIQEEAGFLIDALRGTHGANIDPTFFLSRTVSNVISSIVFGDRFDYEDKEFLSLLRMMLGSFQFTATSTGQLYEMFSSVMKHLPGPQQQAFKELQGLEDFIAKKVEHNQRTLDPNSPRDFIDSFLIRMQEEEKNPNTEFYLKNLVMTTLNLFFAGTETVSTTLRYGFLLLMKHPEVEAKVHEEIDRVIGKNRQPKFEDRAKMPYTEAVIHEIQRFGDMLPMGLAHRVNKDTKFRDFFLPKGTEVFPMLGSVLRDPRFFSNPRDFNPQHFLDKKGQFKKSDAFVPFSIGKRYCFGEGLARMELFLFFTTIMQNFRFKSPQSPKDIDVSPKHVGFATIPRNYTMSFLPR
Sequence of Ach binding protein (AchBP) (P58154 20-229 limits assumed): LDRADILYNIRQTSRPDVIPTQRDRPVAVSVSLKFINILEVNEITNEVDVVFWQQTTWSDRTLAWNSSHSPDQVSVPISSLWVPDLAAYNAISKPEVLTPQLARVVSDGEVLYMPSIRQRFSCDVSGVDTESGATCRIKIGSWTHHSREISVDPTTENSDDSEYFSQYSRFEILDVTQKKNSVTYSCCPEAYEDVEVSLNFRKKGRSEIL
Sequence of Acetylcholine Binding Protein (P58154 20-229 limits assumed): as above
Sequence of CYP3A4 (P08684 whole entry): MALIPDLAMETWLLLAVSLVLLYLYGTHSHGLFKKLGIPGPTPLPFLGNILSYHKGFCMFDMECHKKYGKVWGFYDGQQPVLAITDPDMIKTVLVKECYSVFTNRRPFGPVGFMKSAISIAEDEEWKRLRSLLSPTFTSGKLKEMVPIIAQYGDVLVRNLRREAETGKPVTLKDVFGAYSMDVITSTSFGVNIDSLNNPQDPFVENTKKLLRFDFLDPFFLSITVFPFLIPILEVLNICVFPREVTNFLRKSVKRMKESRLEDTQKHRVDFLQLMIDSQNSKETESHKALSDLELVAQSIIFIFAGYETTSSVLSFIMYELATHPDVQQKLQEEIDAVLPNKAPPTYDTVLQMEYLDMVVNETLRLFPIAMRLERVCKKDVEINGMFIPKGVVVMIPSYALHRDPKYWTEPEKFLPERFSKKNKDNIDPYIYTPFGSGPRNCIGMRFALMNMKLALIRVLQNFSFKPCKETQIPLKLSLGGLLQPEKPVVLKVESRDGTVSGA
Sequence of mouse CYP2A5 (P20852 whole entry): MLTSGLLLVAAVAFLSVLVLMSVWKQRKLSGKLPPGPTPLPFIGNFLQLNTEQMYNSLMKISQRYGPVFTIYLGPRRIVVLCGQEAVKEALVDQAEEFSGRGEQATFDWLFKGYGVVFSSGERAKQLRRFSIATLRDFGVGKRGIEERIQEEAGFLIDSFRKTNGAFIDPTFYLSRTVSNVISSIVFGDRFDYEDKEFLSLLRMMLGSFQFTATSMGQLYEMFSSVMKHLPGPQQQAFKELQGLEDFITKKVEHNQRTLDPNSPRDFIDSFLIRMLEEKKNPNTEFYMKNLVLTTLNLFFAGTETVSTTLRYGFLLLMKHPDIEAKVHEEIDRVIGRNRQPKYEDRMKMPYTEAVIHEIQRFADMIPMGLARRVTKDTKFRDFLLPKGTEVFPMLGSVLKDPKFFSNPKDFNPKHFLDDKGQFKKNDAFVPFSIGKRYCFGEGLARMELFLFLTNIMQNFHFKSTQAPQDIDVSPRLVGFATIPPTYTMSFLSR
Sequence of CYP3A4 relative to CYP2A6 (P08684 whole entry): as the sequence (P08684 whole entry) above

SMILES: c1cncc(-c2ccc(CNCc3ccc(-c4cccnc4)s3)s2)c1 [bis((5-(pyridin-3-yl)thiophen-2-yl)methyl)amine]
- % of Control [1]: 10%

SMILES: O/N=C/c1ccc(-c2cccnc2)o1 [TD-II-065 ESP trans isomer]
- inhibition at 1 µM [2]: 41%
- IC50 [3]: 4.24 ± 0.49 µM

SMILES: NCc1ccc(-c2cccnc2)o1 [(5-(pyridin-3-yl)furan-2-yl)methanamine]
- % of Control [1]: 20%

SMILES: c1cncc(-c2ccsc2)c1 [TD-I-145]
- inhibition at 1 µM [2]: 12%
- IC50 [3]: 1.37 ± 0.23 µM
- IC50 [4]: 0.8 µM

SMILES: OCC1CCC(c2cccnc2)O1 (centres unmarked) [Compound 69]
- IC50 [5]: 61.4 ± 17.7 µM
- binding to the AchBP (in words) ([6]; fluorescence quenching): non-binders
- AchBP ([6]; intrinsic fluorescence quenching, 20 nM AchBP): −

SMILES: CN1CCCC1c1cccnc1 (centres unmarked) [Compound 54]
- IC50 [7]: 142 ± 15.7 µM
- selectivity ratio [8]: 5
- IC50 [9]: 26.3 ± 3.4 µM

SMILES: COc1c2occc2cc2ccc(=O)oc12 [methoxsalen (9-methoxypsoralen), 9-methoxypsoralen]
- NNK-dependent tumorigenesis in mice (in words) [10]: strongly inhibited

SMILES: CC(=O)SCc1ccc(-c2cccnc2)o1 [TD-V-099]
- inhibition at 1 µM [11]: 13%
- IC50 [9]: 1.8 ± 0.3 µM

SMILES: CNCC#Cc1cccnc1 [TD-IV-091 41]
- inhibition at 1 µM [2]: 2%

SMILES: O/N=C/c1ccc(-c2cccnc2)o1 [Compound 39]
- IC50 ([7]; human, pH 7.5): > 400 µM
- IC50 [9]: 9.75 ± 0.91 µM

SMILES: CN1CCCC1c1cccnc1 (centres unmarked) [Compound 54, Nicotine]
- Ki [9]: 4.4 ± 0.6 µM

From patent publication US8609708B2 (Human BioMolecular Research Institute, priority 2003, dated 2013)
